According to BindingDB's records for doi:10.1021/jm9800245 (F. Hoffmann-La Roche, 1998):
Structures can show the parent of a compound that is named as a salt.

Key:
[1] = Inhibition of beta-lactamase of Escherichia coli TEM-3 […]
[2] = target: Beta-lactamase AmpC (Pseudomonas aeruginosa); test: Inhibition of beta-lactamase of Pseudomonas aeruginosa 18 SH (class C)

SMILES: NC(=O)c1ccc(NC(=O)N2CC[C@@H]3C2C(=O)N3S(=O)(=O)O)cc1 (stereo partly drawn) [(2S,5R)-2-(4-Carbamoyl-phenylcarbamoyl)-7-oxo-2,6-diaza-bicyclo[3.2.0]heptane-6-sulfonic acid]
- IC50 [1]: 9000 µM
- IC50 [2]: 0.217 µM

SMILES: CC(C)(C)OC(=O)N1CCC2C1C(=O)N2OS(=O)(=O)O (configuration not stated) [sodium salt-tert-butyl 7-oxo-6-(sulfooxy)-2,6-diazabicyclo[3.2.0]heptane-2-carboxylate]
- IC50 [1]: 0.165 µM
- IC50 [2]: 0.028 µM

SMILES: CC(C)(C)OC(=O)N1CC[C@@H]2C1C(=O)N2S(=O)(=O)O (stereo partly drawn) [(2S,5R)-7-Oxo-6-sulfo-2,6-diaza-bicyclo[3.2.0]heptane-2-carboxylic acid tert-butyl ester]
- IC50 [1]: > 1000 µM
- IC50 [2]: 1.5 µM

SMILES: NC(=O)c1ccc(NC(=O)N2CCC3C2C(=O)N3OS(=O)(=O)O)cc1 (configuration not stated) [sodium salt-Sulfuric acid mono-[2-(4-carbamoyl-phenylcarbamoyl)-7-oxo-2,6-diaza-bicyclo[3.2.0]hept-6-yl] ester]
- IC50 [2]: 0.026 µM
